In patent publication US20140329903A1, “TREATMENT OF NEURODEGENERATIVE DISEASES” (ACADIA PHARMACEUTICALS INC., priority 2011, published 2014):
pEC50: −log10 of the molar value. “Also recorded” adds a separate entry of the source. Read-outs that look alike come from different tables or passages of the source.

Legend:
[1] = tested on: 6-hydroxydopamine (6OHDA) lesions of the substantia nigra pars compacta (SNc); assay: 6OHDA lesion of the SNc, bexarotene once daily orally after lesion; format: in vivo, rats
Description: . The endpoints assessed were: • Neuroprotection measured by tyrosine hydroxylase (TH) staining in the substantia nigra (SNc). • Behavioral assessments including rotorod, challenging beam, and spontaneous locomotion
. Following the 28 days of treatment, animals were assessed in 3 tests of coordinated motor function (spontaneous locomotion, rotorod and challenging beam) and then tissue was collected to assess tyrosine hydroxylase immunofluorescence in the substantia nigra. […].
The subjects and surgical procedures to produce lesions were as described above for i.c.v. dosing.
Spontaneous Locomotion, rotorod, and challenging beam tests were conducted as described above for i.c.v. dosing.
Novel object recognition (NOR) was conducted in a novel environment in two phases: sample and test. Subjects were placed into the NOR chamber, where two identical objects were placed. Each rat was allowed to explore for 3 min., and the time spent exploring at each position recorded. After 3 min., each rat was removed from the arena and placed back into its cage. The test phase was conducted 4 hours after the sample phase. During test, one familiar object (seen during sample) and one novel object was placed into the chamber, and each rat was allowed 3 min to explore. The test sessions were recorded on video and scored by an observer blind to each subject's treatment condition. For test data, % of exploration time spent at the novel object was determined and headtwitch assays.
Spontaneous Head Twitch: Subjects were place in a group of 4 animals into a clean holding tub, where they were closely observed for 8 min.
Tyrosine Hydroxylase Fluorescent Immunohistochemisty was conducted as described above for i.c.v. dosing.

[2] = cited from earlier work; for Measured AUC: human
RARE & Nurr1 = assay: Reporter gene transcription assay pRARE & Nurr1; format: cell-based
From the text: (§1) We have enabled assays to detect ligand-induced gene transcription (reporter gene assays) in order to confirm results obtained in BRET2 assays.

[3] = tested on: Retinoid X Receptor (RXR) response element RXRE; assay: Reporter gene transcription assay pRXRE; format: cell-based
From the text: as §1

[4] = tested on: 6-hydroxydopamine (6OHDA) lesions of the substantia nigra pars compacta (SNc); assay: 6OHDA lesion of the SNc, bexarotene i.c.v. after lesion; format: in vivo, Sprague-Dawley rats; conditions: for Effective in rat PD model?: i.c.v. 0.006 mg/kg/day (text: 0.00625), 6OHDA lesioning of the substantia nigra
Description: Following the 28 days of treatment, animals were assessed in 3 tests of coordinated motor function (spontaneous locomotion, rotorod and challenging beam) and then tissue was collected to assess tyrosine hydroxylase immunofluorescence in the substantia nigra (SNc) and DAT and VMAT2 in the striatum (STR). […] The subjects for these experiments were male Sprague-Dawley rats purchased from Charles Rivers Laboratories (Hollister, Calif.) weighing 200-225 g upon arrival. Rats were housed in pairs in polypropylene cages within a temperature controlled vivarium maintained on a 12 hr light:dark cycle (lights on 7 am). For the duration of the experiments, animals received free access to food and water. All procedures were conducted in accordance with the NIH Guidelines for the Care and Use of Laboratory Animals and were approved by the Institutional Animal Care and Use Committee (IACUC) at […] Pharmaceuticals. Animals were acclimated to vivarium conditions and handling for a minimum of one week prior to surgery. […] After 6OHDA infusions, an Alzet osmotic pump (Durect Corporation, Cupertino, Calif.) attached to an intracranial guide cannula was implanted subcutaneously between the shoulder blades of each animal. The guide was placed intracerebroventricularly (i.c.v., A/P -0.8 mm, M/L -1.4 mm, D/V -4.5 mm relative to bregma) and was attached to the skull with jeweler's screws and dental acrylic and the incision was closed with staples. […] They were then incubated in 0.9% physiological saline at 37° C. until surgically implanted. The pumps infused at a rate of 0.25 μL/hr for 28 days after implantation. […] After completion of the experiment, a subset of the osmotic pumps was removed. The pumps were weighed and aspirated in order to verify compound delivery. […] (Columbus, Ohio). Animals were placed into the chamber for 15 min and their distance traveled (cm) was recorded. Rotorod testing was conducted on a rotating cylinder (70 mm diameter) with knurled tread to aid in gripping. Animals were placed on the cylinder and it was set to rotate at 1 rpm for 15 sec. If animals fell or jumped from the cylinder within 30 sec., they were replaced and the acclimation period restarted. Once animals successfully remained on the cylinder for the acclimation period, the speed of rotation was increased 1 rpm every 15 sec to a maximum of 10 rpm. The time in seconds that animals remained on the cylinder after the acclimation period and the maximum rpm achieved were recorded. […] The challenging beam test was conducted on a 102 cm long bi-level beam made from ABS plastic. The top, narrower beam gradually tapered from 3.5 cm to 0.7 cm, while the bottom, wider beam gradually tapered from 5 cm to 1.8 cm along the length of the beam. The beam was elevated 23 cm above the table. Animals were placed in groups of 4 into a holding tub and received five training trials. On the first training trial animals were placed at the end of the beam and were required to jump into a holding tub. On successive trials, animals were placed 25, 50, 75 and 100 cm from the end of the beam and were required to traverse the beam and jump into the holding tub at the end. Following training, a single test trial was conducted where each animal was placed at the beginning of the beam and the start latency (time required to move all four feet from their starting locations) and run time (time required to traverse the beam after starting) were recorded. […] Similarly, fixed brains were sectioned (50 μm) through the striatum and labeled for the dopamine transporter. […] After immuno labeling sections were mounted and coverslipped using fluorescent antifade mounting medium ([…], Dako USA, Carpinteria, Calif.). Single optical plane images were obtained using an Olympus BX51 Fluorescent microscope (Olympus America Inc., Center Valley, Pa.) equipped with a digital camera (Retina 2000R, Qimaging, Surrey, BC). Images were acquired using a 4× air objective ([…]. 0.13) with 2× digital magnification. […]

[5] = Body weight gain on oral dosing; format: in vivo, rats

SMILES: C=C(c1ccc(C(=O)O)cc1)c1cc2c(cc1C)C(C)(C)CCC2(C)C [Bexarotene, bexarotene]
- improvement of TH measures in the SNc ([1]; 0.3 mg/kg/day orally for 28 days beginning 3 days after lesion): not
- normalization of behavior disrupted by lesion ([1]; 0.3 mg/kg/day orally for 28 days beginning 3 days post-lesion): not
- TH positive cells, mean pixel intensity, % immunopositive, colocalization of TH and Neurotrace in the SNc ([1]; 1 or 3 mg/kg/day orally for 28 days beginning 3 days after lesion, vs vehicle): significantly improved; also recorded: improved tyrosine hydroxylase expression
- behavior disrupted by lesion (challenging beam, rotorod, novel object recognition, head twitches) ([1]; 1 or 3 mg/kg/day orally for 28 days beginning 3 days post-lesion): normalized behavior disrupted by lesion; also recorded: reversed behavioral deficits
- Effective PD dose (rat), p.o. ([1]; once daily p.o., 6OHDA lesion model, listed as Targretin): 1 mg/kg/day
- Effective in rat PD model? ([1]; p.o. 1 mg/kg/day, 6OHDA lesioning of the substantia nigra, 1 mg/kg/day): effectively reversed behavioral deficits and regenerated neurons and Yes
- Human AUC at recommended anti-cancer dose ([2]; 300 mg/m^2 P.O. (8.1 mg/kg), Miller 1997, NDA #21055, Duvic 2001): 11.6 µM·h
- Measured AUC ([2]; 18 mg/m2 (0.5 mg/kg, 39 mg), Miller et al, 1997): 0.7 to 0.9 µM·h
- Measured AUC ([2]; 21 mg/m2 (0.6 mg/kg, 45 mg), Rizvi et al, 1999): 1.4 µM·h
- Measured AUC ([2]; 37 mg/m2 (0.9 mg/kg, 75 mg), Targretin summary basis of approval): 1.0 to 1.1 µM·h
- pEC50 (RARE & Nurr1): 7.59
- Eff % (RARE & Nurr1; pRARE & Nurr1, normalized to 9-cis retinoic acid): 23%
- pEC50 [3]: 6.84
- Eff % ([3]; pRXRE, normalized to 9-cis retinoic acid): 44%
- DAT and VMAT2 immunohistochemistry in the striatum ([4]; 0.006 mg/kg/day i.c.v. beginning 72 hours after 6OHDA lesion): significantly increased all measures; also recorded: improved dopamine transporter and VMAT2 expression
- tyrosine hydroxylase immunofluorescence in the SNc ([4]; 0.006 mg/kg/day i.c.v. beginning 72 hours after 6OHDA lesion, vs vehicle): significantly improved cell counts, cell size and mean pixel intensity; also recorded: improved tyrosine hydroxylase expression
- motor performance (challenging beam, rotorod, spontaneous locomotion) after 6OHDA ([4]; 0.006 mg/kg/day i.c.v. for 28 days beginning 72 hours after lesion): not impaired relative to Sham controls; also recorded: reversed behavioral deficits
- Effective in rat PD model? [4]: effective in reversing the neuronal and behavioral deficits
- Effective in rat PD model? ([4]; listed as bexarotene): Yes
- Effective PD dose (rat), i.c.v. ([4]; i.c.v. continuous infusion, 6OHDA lesion model): 0.00625 mg/kg/day
- % BW gain ([5]; PO 3 mg/kg/day once per day): 19.8 +/− 3.4%
- % BW gain ([5]; PO 10 mg/kg/day once per day): 20.4 +/− 1.6%
- % BW gain ([5]; PO 30 mg/kg/day once per day): 11.2 +/− 0.8%
- % BW gain ([5]; PO 100 mg/kg/day once per day): 7.0 +/− 3.6%
- body weight gain ([5]; higher oral doses): decrease in body weight gain
